From ChEMBL document CHEMBL1143618, “Discovery of a beta-MSH-derived MC-4R selective agonist” (J Med Chem, 2005)
pEC50, pKi: −log10 of the molar value.

Experiments:
Melanocortin receptor 5 = Melanocortin receptor 5 (Homo sapiens, UniProt P33032); assay: Inhibition of [125I]NDP-alpha-MSH binding to melanocortin-5 receptor expressed in HEK293 cells; assay type: cell-based
Melanocortin receptor 4 [1] = molecular target: T1, Melanocortin receptor 4 (Homo sapiens, UniProt P32245); assay: Agonist activity at human Melanocortin-4 receptor as peptide required for 50% maximal cAMP release (n > or =2); assay type: functional
T1 sequence (P32245 whole entry): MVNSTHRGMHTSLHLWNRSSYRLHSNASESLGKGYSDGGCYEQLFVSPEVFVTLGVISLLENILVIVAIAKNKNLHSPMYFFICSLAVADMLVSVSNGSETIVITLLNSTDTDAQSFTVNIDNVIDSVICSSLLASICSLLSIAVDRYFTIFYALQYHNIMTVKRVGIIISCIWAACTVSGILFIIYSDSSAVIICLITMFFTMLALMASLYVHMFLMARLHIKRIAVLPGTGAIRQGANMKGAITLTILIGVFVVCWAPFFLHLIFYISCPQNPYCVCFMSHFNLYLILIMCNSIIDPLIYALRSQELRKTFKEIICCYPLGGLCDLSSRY

[2] = molecular target: Melanocyte-stimulating hormone receptor (Homo sapiens, UniProt Q01726); assay: Inhibition of [125I]NDP-alpha-MSH binding to melanocortin-1 receptor expressed in HEK293 cells; assay type: cell-based
Chain of Melanocyte-stimulating hormone receptor (Q01726 whole entry): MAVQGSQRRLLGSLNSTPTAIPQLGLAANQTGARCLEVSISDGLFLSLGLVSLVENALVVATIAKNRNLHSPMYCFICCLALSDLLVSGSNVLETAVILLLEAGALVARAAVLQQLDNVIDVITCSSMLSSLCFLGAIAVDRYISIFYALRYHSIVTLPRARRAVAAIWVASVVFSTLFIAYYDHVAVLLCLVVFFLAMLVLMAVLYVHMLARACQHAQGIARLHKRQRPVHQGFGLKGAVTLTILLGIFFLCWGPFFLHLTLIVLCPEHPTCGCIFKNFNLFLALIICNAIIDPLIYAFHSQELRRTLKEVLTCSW

Melanocortin receptor 3 [3] = molecular target: T2, Melanocortin receptor 3 (Homo sapiens, UniProt P41968); assay: Inhibition of [125I]-NDP-alpha-MSH binding to melanocortin-3 receptor expressed in HEK293 cells; assay type: cell-based
T2 sequence (P41968 whole entry): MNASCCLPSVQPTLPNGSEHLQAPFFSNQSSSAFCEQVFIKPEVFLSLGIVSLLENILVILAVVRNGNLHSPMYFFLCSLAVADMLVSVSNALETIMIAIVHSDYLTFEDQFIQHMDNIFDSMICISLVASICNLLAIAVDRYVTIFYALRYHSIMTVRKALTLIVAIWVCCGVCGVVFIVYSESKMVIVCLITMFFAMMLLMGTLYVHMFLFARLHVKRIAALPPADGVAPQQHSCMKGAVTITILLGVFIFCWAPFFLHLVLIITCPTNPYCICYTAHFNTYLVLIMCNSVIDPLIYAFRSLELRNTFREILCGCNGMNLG

Melanocortin receptor 4 [4] = molecular target: T1, Melanocortin receptor 4; assay: Inhibition of [125I]NDP-alpha-MSH binding to melanocortin-4 receptor expressed in HEK293 cells; assay type: cell-based
Melanocortin receptor 4 [5] = molecular target: Melanocortin receptor 4 (Rattus norvegicus, UniProt P70596); assay: Binding affinity for rat melanocortin-4 receptor
Chain of Melanocortin receptor 4 (Rattus norvegicus, UniProt P70596) (P70596 whole entry): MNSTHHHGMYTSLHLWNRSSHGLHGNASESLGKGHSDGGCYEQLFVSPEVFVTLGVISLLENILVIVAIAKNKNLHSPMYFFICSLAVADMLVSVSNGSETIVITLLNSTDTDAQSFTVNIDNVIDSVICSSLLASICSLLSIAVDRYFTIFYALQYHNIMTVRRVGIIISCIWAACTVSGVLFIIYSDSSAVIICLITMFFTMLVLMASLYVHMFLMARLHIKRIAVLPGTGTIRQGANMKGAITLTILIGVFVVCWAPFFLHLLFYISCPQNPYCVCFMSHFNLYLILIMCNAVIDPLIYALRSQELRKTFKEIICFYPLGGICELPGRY

Melanocortin receptor 3 [6] = molecular target: T2, Melanocortin receptor 3; assay: Agonist activity at human Melanocortin-3 receptor as peptide required for 50% maximal cAMP release; assay type: functional

Chain of Melanocortin receptor 5 (P33032 whole entry): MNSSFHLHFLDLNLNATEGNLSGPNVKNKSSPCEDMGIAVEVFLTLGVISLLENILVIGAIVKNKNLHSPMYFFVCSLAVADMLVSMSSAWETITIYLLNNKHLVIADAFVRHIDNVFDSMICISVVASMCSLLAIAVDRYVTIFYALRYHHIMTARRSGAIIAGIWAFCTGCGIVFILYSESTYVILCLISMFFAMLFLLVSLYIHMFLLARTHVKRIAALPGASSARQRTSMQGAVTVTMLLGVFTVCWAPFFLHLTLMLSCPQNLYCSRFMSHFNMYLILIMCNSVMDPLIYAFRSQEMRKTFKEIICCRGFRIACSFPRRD

| Molecule | pKi (Melanocortin receptor 5) | pEC50 (Melanocortin receptor 4 [1]) | pKi [2] | pKi (Melanocortin receptor 3 [3]) | pKi (Melanocortin receptor 4 [4]) | pKi (Melanocortin receptor 4 [5]) | pEC50 (Melanocortin receptor 3 [6]) |
| --- | --- | --- | --- | --- | --- | --- | --- |
| CC(=O)N[C@@H](Cc1ccc(O)cc1)C(=O)N[C@@H](CCCN=C(N)N)C(=O)N[C@H]1CSSC[C@@H](C(=O)N[C@@H](CO)C(=O)N2CCC[C@H]2C(=O)N2CCC[C@H]2C(=O)N[C@@H](CCCCN)C(=O)N[C@@H](CC(=O)O)C(N)=O)NC(=O)[C@H](Cc2c[nH]c3ccccc23)NC(=O)[C@H](CCCN=C(N)N)NC(=O)[C@@H](Cc2ccccc2)NC(=O)[C@H](Cc2c[nH]cn2)NC(=O)[C@H](CCC(=O)O)NC1=O | < 6.30 | 9.62 | 9.24 | 8.10 | 9.28 | – | – |
| CC(=O)N[C@@H](Cc1ccc(O)cc1)C(=O)N[C@@H](CCCNC(=N)N)C(=O)N[C@H]1CSSC[C@@H](C(N)=O)NC(=O)[C@H](Cc2c[nH]c3ccccc23)NC(=O)[C@H](CCCNC(=N)N)NC(=O)[C@@H](Cc2ccccc2)NC(=O)[C@H](Cc2cncn2C)NC(=O)[C@H](CCC(=O)O)NC1=O | < 6.30 | 9.27 | < 6.30 | < 6.30 | 8.18 | – | – |
| CC(=O)N[C@@H](Cc1ccc(O)cc1)C(=O)N[C@@H](CCCNC(=N)N)C(=O)N[C@H]1CSSC[C@@H](C(N)=O)NC(=O)[C@H](Cc2c[nH]c3ccccc23)NC(=O)[C@H](CCCNC(=N)N)NC(=O)[C@@H](Cc2ccccc2)NC(=O)[C@H](Cc2c[nH]cn2)NC(=O)[C@H](CCC(=O)O)NC1=O | < 6.30 | 9.57 | 7.77 | – | 9.11 | 9.28 | – |
| CSCC[C@H](NC(=O)[C@H](CCCNC(=N)N)NC(=O)[C@H](Cc1ccc(O)cc1)NC(C)=O)C(=O)N[C@@H](CCC(=O)O)C(=O)N[C@@H](Cc1cnc[nH]1)C(=O)N[C@H](Cc1ccccc1)C(=O)N[C@@H](CCCNC(=N)N)C(=O)N[C@@H](Cc1c[nH]c2ccccc12)C(=O)NCC(N)=O | 9.08 | 9.80 | 9.68 | 8.84 | 9.26 | – | – |
| CC(=O)N[C@H](CCCNC(=N)N)C(=O)N[C@H]1CSSC[C@@H](C(N)=O)NC(=O)[C@H](Cc2c[nH]c3ccccc23)NC(=O)[C@H](CCCNC(=N)N)NC(=O)[C@@H](Cc2ccccc2)NC(=O)[C@H](Cc2c[nH]cn2)NC(=O)[C@H](CCC(=O)O)NC1=O | < 6.30 | – | 7.78 | 7.25 | – | 9.41 | 8.79 |
| CC(=O)N[C@H]1CSSC[C@@H](C(N)=O)NC(=O)[C@H](Cc2c[nH]c3ccccc23)NC(=O)[C@H](CCCNC(=N)N)NC(=O)[C@@H](Cc2ccccc2)NC(=O)[C@H](Cc2c[nH]cn2)NC(=O)[C@H](CCC(=O)O)NC1=O | < 6.30 | – | 7.17 | – | – | – | – |
| CC(=O)N[C@@H](Cc1ccc(O)cc1)C(=O)N[C@@H](CCCNC(=N)N)C(=O)N[C@H]1CSSC[C@@H](C(N)=O)NC(=O)[C@H](Cc2c[nH]c3ccccc23)NC(=O)[C@H](CCCNC(=N)N)NC(=O)[C@@H](Cc2ccc(F)cc2)NC(=O)[C@H](Cc2c[nH]cn2)NC(=O)[C@H](CCC(=O)O)NC1=O | 6.62 | 9.92 | 8.00 | 7.80 | 9.55 | – | – |
| CC(=O)N[C@@H](CCCNC(=N)N)C(=O)N[C@H]1CSSC[C@@H](C(N)=O)NC(=O)[C@H](Cc2c[nH]c3ccccc23)NC(=O)[C@H](CCCNC(=N)N)NC(=O)[C@@H](Cc2ccccc2)NC(=O)[C@H](Cc2c[nH]cn2)NC(=O)[C@H](CCC(=O)O)NC1=O | < 6.30 | – | 7.99 | 7.47 | – | – | 9.17 |
| CC(=O)N[C@@H](Cc1ccc(O)cc1)C(=O)N[C@@H](CCCN=C(N)N)C(=O)N[C@H]1CSSC[C@@H](C(N)=O)NC(=O)[C@H](Cc2c[nH]c3ccccc23)NC(=O)[C@H](CCCN=C(N)N)NC(=O)[C@H](Cc2ccccc2)NC(=O)[C@H](Cc2c[nH]cn2)NC(=O)[C@H](CCC(=O)O)NC1=O | < 6.30 | 8.28 | 6.83 | < 6.30 | 7.52 | – | – |
| CC(=O)N[C@@H](Cc1ccc(O)cc1)C(=O)N[C@@H](CCCNC(N)=O)C(=O)N[C@H]1CSSC[C@@H](C(N)=O)NC(=O)[C@H](Cc2c[nH]c3ccccc23)NC(=O)[C@H](CCCNC(=N)N)NC(=O)[C@@H](Cc2ccccc2)NC(=O)[C@H](Cc2c[nH]cn2)NC(=O)[C@H](CCC(=O)O)NC1=O | < 6.30 | 9.10 | 7.31 | 6.50 | 8.60 | – | – |
| CC(=O)N[C@@H](Cc1ccc(O)cc1)C(=O)N[C@@H](CCCCN)C(=O)N[C@H]1CSSC[C@@H](C(N)=O)NC(=O)[C@H](Cc2c[nH]c3ccccc23)NC(=O)[C@H](CCCNC(=N)N)NC(=O)[C@@H](Cc2ccccc2)NC(=O)[C@H](Cc2c[nH]cn2)NC(=O)[C@H](CCC(=O)O)NC1=O | < 6.30 | 10.00 | 7.80 | – | 8.91 | – | – |
| CC(=O)N[C@@H](Cc1ccc(O)cc1)C(=O)N[C@@H](CCCN=C(N)N)C(=O)N[C@H]1CSSC[C@@H](C(N)=O)NC(=O)[C@H](Cc2c[nH]c3ccccc23)NC(=O)[C@H](CCCN=C(N)N)NC(=O)[C@@H](Cc2ccc3ccccc3c2)NC(=O)[C@H](Cc2c[nH]cn2)NC(=O)[C@H](CCC(=O)O)NC1=O | 7.42 | 9.19 | 6.92 | 8.16 | 9.52 | – | – |
| CSCC[C@H](NC(=O)[C@H](CCCN=C(N)N)NC(=O)[C@H](Cc1ccc(O)cc1)NC(=O)[C@@H]1CCCN1C(=O)CNC(=O)[C@H](CCC(=O)O)NC(=O)[C@H](CC(=O)O)NC(=O)[C@H](CCCCN)NC(=O)[C@H](CCCCN)NC(=O)[C@H](CCC(=O)O)NC(=O)[C@H](C)N)C(=O)N[C@@H](CCC(=O)O)C(=O)N[C@@H](Cc1c[nH]cn1)C(=O)N[C@@H](Cc1ccccc1)C(=O)N[C@@H](CCCN=C(N)N)C(=O)N[C@@H](Cc1c[nH]c2ccccc12)C(=O)NCC(=O)N[C@@H](CO)C(=O)N1CCC[C@H]1C(=O)N1CCC[C@H]1C(=O)N[C@@H](CCCCN)C(=O)N[C@@H](CC(=O)O)C(=O)O | 7.11 | – | 9.05 | 7.97 | – | – | – |
| CSCC[C@H](NC(=O)[C@H](CCCNC(=N)N)NC(=O)[C@H](Cc1ccc(O)cc1)NC(C)=O)C(=O)N[C@@H](CCC(=O)O)C(=O)N[C@@H](Cc1cnc[nH]1)C(=O)N[C@H](Cc1ccccc1)C(=O)N[C@@H](CCCNC(=N)N)C(=O)N[C@@H](Cc1c[nH]c2ccccc12)C(=O)NCC(=O)N[C@@H](CO)C(=O)N1CCC[C@H]1C(=O)N1CCC[C@H]1C(=O)N[C@@H](CCCCN)C(=O)N[C@@H](CC(=O)O)C(N)=O | 9.59 | 9.25 | 10.05 | 9.96 | 9.57 | – | – |
| CC(=O)N[C@@H](Cc1ccc(O)cc1)C(=O)N[C@@H](CCCNC(=N)N)C(=O)N[C@H]1CSSC[C@@H](C(N)=O)NC(=O)[C@H](Cc2c[nH]c3ccccc23)NC(=O)[C@H](CCCNC(=N)N)NC(=O)[C@@H](Cc2ccc(Cl)cc2)NC(=O)[C@H](Cc2c[nH]cn2)NC(=O)[C@H](CCC(=O)O)NC1=O | 7.37 | 10.22 | 8.09 | 8.51 | 9.85 | – | – |
| CSC[C@H](NC(=O)[C@H](Cc1c[nH]c2ccccc12)NC(=O)[C@H](CCCNC(=N)N)NC(=O)[C@@H](Cc1ccccc1)NC(=O)[C@H](Cc1cnc[nH]1)NC(=O)[C@H](CCC(=O)O)NC(=O)[C@H](CSC)NC(=O)[C@H](CCCNC(=N)N)NC(=O)[C@H](Cc1ccc(O)cc1)NC(C)=O)C(N)=O | 7.21 | 9.04 | 8.56 | 6.78 | 7.88 | – | – |
| H-GPYRMEHFRWGSPPKD-NH2 | 7.61 | 9.17 | 9.29 | 8.03 | 8.28 | – | – |
